Results from patent publication US10093713B2, “GIP-GLP-1 dual agonist compounds and methods” (priority 2013, dated 2018).
Like-named read-outs stand apart in the source and are kept apart here. *1 amine or outer side, *2 acyl side, *3 side chain or, on linkers, in order; H or OH if unused. Where a SMILES comes first, the peptide text is derived from it. Side-chain parts run from the residue outwards. [ ]: non-standard residue; d: D form. The star is where a group is joined. C18 diacid = O=C(O)CCCCCCCCCCCCCCCCC(=O)*; γGlu = O=C(O)[C@H](CCC(=O)[*:2])N[*:1]; AEEA = NCCOCCOCC(=O)O; Aib = CC(C)(N)C(=O)O

What was measured:
[1] = molecular target: T1, human GLP-1 R (Homo sapiens, UniProt P43220); experiment: Human GLP-1 receptor (GLP-1 R) activity assay, cAMP induction (AlphaScreen) in HEK293 cells; assay type: cell-based
T1 construct: expressed in transfected cells
T1 sequence (P43220 24-463): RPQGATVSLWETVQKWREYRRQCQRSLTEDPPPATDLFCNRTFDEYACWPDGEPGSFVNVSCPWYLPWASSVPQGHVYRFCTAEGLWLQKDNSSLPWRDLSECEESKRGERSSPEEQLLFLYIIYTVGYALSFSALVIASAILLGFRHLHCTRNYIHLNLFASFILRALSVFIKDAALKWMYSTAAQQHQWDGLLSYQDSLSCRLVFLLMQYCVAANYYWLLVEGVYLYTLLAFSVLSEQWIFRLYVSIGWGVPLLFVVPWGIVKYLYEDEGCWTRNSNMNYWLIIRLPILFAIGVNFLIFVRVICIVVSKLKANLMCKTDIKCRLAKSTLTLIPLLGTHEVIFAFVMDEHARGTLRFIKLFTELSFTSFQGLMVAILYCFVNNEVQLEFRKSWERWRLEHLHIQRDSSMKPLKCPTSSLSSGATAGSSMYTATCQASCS
Description: (§1) Human GIP Receptor (GIP R) and GLP-1 Receptor (GLP-1 R) Activity Assay
(§2) In vitro effects of peptide conjugates of the invention were assessed by measuring the induction of cAMP following stimulation of the respective receptor by GIP, GLP1 or analogues of these, as outlined in the invention, using the AlphaSceen® cAMP kit from Perkin-Elmer according to instructions. Briefly, HEK293 cells expressing the human GIP R or GLP-1 R (stable cell lines generated through transfection of the cDNA for human GIP R or GLP-1 and selection of stable clones) were seeded at 30,000 cells/well in 96-well microtiter plates coated with 0.01% poly-L-lysine, and grown for 1 day in culture in 200 μl growth medium (DMEM, 10% FCS, Penicillin (100 IU/ml), Streptomycin (100 μg/ml)). On the day of analysis, growth medium was removed and the cells were washed once with […] Tyrode's buffer (Tyrode's Salts (9.6 g/l), 10 mM HEPES, pH 7.4). […] The Assay buffer was removed and cells are lysed in 80 μl Lysis buffer (0.1% w/v BSA, 5 mM HEPES, 0.3% v/v Tween-20) per well. From each well 10 μl lysed cells was transferred to a 384-well plate and mixed with 15 μl bead-mix (1 Unit/15 μl anti-cAMP Acceptor Beads, 1 Unit/15 μl Donor Beads, and 1 Unit/15 μl Biotinylated cAMP in Assay Buffer). The plates were mixed and incubated in the dark for an hour at room temperature before measuring using an Envision™ plate reader (Perkin-Elmer).
(§3) The resulting cAMP curves were plotted as absolute cAMP concentrations (nM) over log (test compound concentration) and analyzed using the curve fitting program XLfit.
(§4) Parameters calculated to describe both the potency as well as the agonistic activity of each test compound on the receptors were:
(§5) EC50, a concentration resulting in a half-maximal elevation of cAMP levels, reflecting the potency of the test compound.

[2] = molecular target: T2, human GIP R (Homo sapiens, UniProt P48546); experiment: Human GIP receptor (GIP R) activity assay, cAMP induction (AlphaScreen) in HEK293 cells; assay type: cell-based; settings: read-out: hGIP-R cAMP EC50 average value
T2 construct: expressed in transfected cells
T2 sequence (P48546 22-466): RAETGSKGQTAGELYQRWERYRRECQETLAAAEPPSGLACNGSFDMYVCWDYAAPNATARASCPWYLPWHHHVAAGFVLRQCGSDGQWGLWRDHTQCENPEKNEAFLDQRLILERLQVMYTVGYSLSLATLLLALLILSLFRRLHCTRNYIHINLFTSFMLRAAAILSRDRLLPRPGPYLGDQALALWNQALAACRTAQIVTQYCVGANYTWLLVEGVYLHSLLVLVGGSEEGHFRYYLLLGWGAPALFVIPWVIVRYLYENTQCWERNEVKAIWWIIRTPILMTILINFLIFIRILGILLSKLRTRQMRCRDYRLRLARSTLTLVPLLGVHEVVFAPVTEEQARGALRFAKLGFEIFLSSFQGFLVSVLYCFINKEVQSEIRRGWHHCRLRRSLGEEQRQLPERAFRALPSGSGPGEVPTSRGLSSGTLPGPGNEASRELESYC
Description: as §1, §2, §3, §4, §5

[3] = Table 2a, secondary assay study, read-out: hGLP1-R cAMP EC50 average value
[4] = Table 2a, secondary assay study
[5] = Table 2, HEK293 cells expressing human GLP-1 R, read-out: hGLP1-R cAMP EC50 average value
[6] = Table 2, HEK293 cells expressing human GIP R

SMILES	EC50 [1, 3] [pM]	EC50 [2, 4] [pM]	EC50 [1, 5] [pM]	EC50 ([1]; Table 3, most comprehensive data, read-out: hGLP-1-R cAMP EC50 average value) [pM]	EC50 [2, 6] [pM]	EC50 ([2]; Table 3, most comprehensive data) [pM]
CC[C@H](C)[C@H](NC(=O)[C@H](CO)NC(=O)[C@H](Cc1ccc(O)cc1)NC(=O)[C@H](CC(=O)O)NC(=O)[C@H](CO)NC(=O)[C@@H](NC(=O)[C@H](Cc1ccccc1)NC(=O)[C@@H](NC(=O)CNC(=O)[C@H](CCC(=O)O)NC(=O)C(C)(C)NC(=O)[C@@H](N)Cc1ccc(O)cc1)[C@@H](C)O)[C@@H](C)O)C(=O)N[C@@H](C)C(=O)N[C@@H](CC(C)C)C(=O)N[C@@H](CC(=O)O)C(=O)N[C@@H](CCCCN)C(=O)N[C@@H](CCCCNC(=O)COCCOCCNC(=O)COCCOCCNC(=O)CC[C@H](NC(=O)CCCCCCCCCCCCCCCCCCC(=O)O)C(=O)O)C(=O)N[C@@H](C)C(=O)N[C@@H](CCC(N)=O)C(=O)N[C@@H](CCCNC(=N)N)C(=O)N[C@@H](C)C(=O)N[C@@H](Cc1ccccc1)C(=O)N[C@H](C(=O)N[C@@H](CC(N)=O)C(=O)N[C@@H](Cc1c[nH]c2ccccc12)C(=O)N[C@@H](CC(C)C)C(=O)N[C@H](C(=O)N[C@@H](C)C(=O)NC(C)(C)C(=O)N[C@@H](CCCCN)C(=O)N1CCC[C@H]1C(=O)N[C@@H](CO)C(=O)N[C@@H](CO)C(=O)NCC(=O)N[C@@H](C)C(=O)N1CCC[C@H]1C(=O)N1CCC[C@H]1C(=O)N1CCC[C@H]1C(=O)N[C@@H](CO)C(N)=O)C(C)C)C(C)C [Compound 16]	9	8				
CC[C@H](C)[C@H](NC(=O)[C@H](CO)NC(=O)[C@H](CC(C)C)NC(=O)[C@H](CC(=O)O)NC(=O)[C@H](CO)NC(=O)[C@@H](NC(=O)[C@H](Cc1ccccc1)NC(=O)[C@@H](NC(=O)CNC(=O)[C@H](CCC(=O)O)NC(=O)C(C)(C)NC(=O)[C@@H](N)Cc1ccc(O)cc1)[C@@H](C)O)[C@@H](C)O)C(=O)N[C@@H](C)C(=O)N[C@@H](CC(C)C)C(=O)N[C@@H](CCC(=O)O)C(=O)N[C@@H](CCCCN)C(=O)N[C@@H](CCCCNC(=O)COCCOCCNC(=O)COCCOCCNC(=O)CC[C@H](NC(=O)CCCCCCCCCCCCCCCCC(=O)O)C(=O)O)C(=O)N[C@@H](C)C(=O)N[C@@H](CCC(N)=O)C(=O)N[C@@H](CCCNC(=N)N)C(=O)N[C@@H](C)C(=O)N[C@@H](Cc1ccccc1)C(=O)N[C@H](C(=O)N[C@@H](CCC(=O)O)C(=O)N[C@@H](Cc1c[nH]c2ccccc12)C(=O)N[C@@H](CC(C)C)C(=O)N[C@@H](CC(C)C)C(=O)N[C@@H](C)C(=O)N[C@@H](CCC(N)=O)C(=O)N[C@@H](CCCCN)C(N)=O)C(C)C [Compound 17] (H-Y[Aib]EGTFTSDLSIALEKK([AEEA-AEEA-γGlu-C18 diacid])AQRAFVEWLLAQK-NH2)			6.2	6	11	
CC[C@H](C)[C@H](NC(=O)[C@H](CO)NC(=O)[C@H](Cc1ccc(O)cc1)NC(=O)[C@H](CC(=O)O)NC(=O)[C@H](CO)NC(=O)[C@@H](NC(=O)[C@H](Cc1ccccc1)NC(=O)[C@@H](NC(=O)CNC(=O)[C@H](CCC(=O)O)NC(=O)C(C)(C)NC(=O)[C@@H](N)Cc1ccc(O)cc1)[C@@H](C)O)[C@@H](C)O)C(=O)N[C@@H](C)C(=O)N[C@@H](CC(C)C)C(=O)N[C@@H](CC(=O)O)C(=O)N[C@@H](CCCCN)C(=O)N[C@@H](CCCCNC(=O)COCCOCCNC(=O)COCCOCCNC(=O)CC[C@H](NC(=O)CCCCCCCCCCCCCCCCC(=O)O)C(=O)O)C(=O)N[C@@H](C)C(=O)N[C@@H](CCC(N)=O)C(=O)N[C@@H](CCCNC(=N)N)C(=O)N[C@@H](C)C(=O)N[C@@H](Cc1ccccc1)C(=O)N[C@H](C(=O)N[C@@H](CC(N)=O)C(=O)N[C@@H](Cc1c[nH]c2ccccc12)C(=O)N[C@@H](CC(C)C)C(=O)N[C@H](C(=O)N[C@@H](C)C(=O)NC(C)(C)C(=O)N[C@@H](CCCCN)C(N)=O)C(C)C)C(C)C [Compound 19] (H-Y[Aib]EGTFTSDYSIALDKK([AEEA-AEEA-γGlu-C18 diacid])AQRAFVNWLVA[Aib]K-NH2)			14		7.3	7

More lines, main results first:

EC50 [1, 3] [pM]	EC50 [2, 4] [pM]	EC50 [1, 5] [pM]	EC50 ([1]; Table 3, most comprehensive data, read-out: hGLP-1-R cAMP EC50 average value) [pM]	EC50 [2, 6] [pM]	SMILES	EC50 ([2]; Table 3, most comprehensive data) [pM]
15	8				CC[C@H](C)[C@H](NC(=O)[C@H](CO)NC(=O)[C@H](Cc1ccc(O)cc1)NC(=O)[C@H](CC(=O)O)NC(=O)[C@H](CO)NC(=O)[C@@H](NC(=O)[C@H](Cc1ccccc1)NC(=O)[C@@H](NC(=O)CNC(=O)[C@H](CCC(=O)O)NC(=O)C(C)(C)NC(=O)[C@@H](N)Cc1ccc(O)cc1)[C@@H](C)O)[C@@H](C)O)C(=O)N[C@@H](C)C(=O)N[C@@H](CC(C)C)C(=O)N[C@@H](CCC(=O)O)C(=O)N[C@@H](CCCCN)C(=O)N[C@@H](CCCCNC(=O)COCCOCCNC(=O)COCCOCCNC(=O)CC[C@H](NC(=O)CCCCCCCCCCCCCCCCC(=O)O)C(=O)O)C(=O)N[C@@H](C)C(=O)N[C@@H](CCC(N)=O)C(=O)N[C@@H](CCCNC(=N)N)C(=O)N[C@@H](C)C(=O)N[C@@H](Cc1ccccc1)C(=O)N[C@H](C(=O)N[C@@H](CCC(=O)O)C(=O)N[C@@H](Cc1c[nH]c2ccccc12)C(=O)N[C@@H](CC(C)C)C(=O)N[C@@H](CC(C)C)C(=O)N[C@@H](C)C(=O)N[C@@H](CCC(N)=O)C(=O)N[C@@H](CCCCN)C(N)=O)C(C)C [Compound 17] (H-Y[Aib]EGTFTSDYSIALEKK([AEEA-AEEA-γGlu-C18 diacid])AQRAFVEWLLAQK-NH2)	
6	11				CC[C@H](C)[C@H](NC(=O)[C@H](CO)NC(=O)[C@H](CC(C)C)NC(=O)[C@H](CC(=O)O)NC(=O)[C@H](CO)NC(=O)[C@@H](NC(=O)[C@H](Cc1ccccc1)NC(=O)[C@@H](NC(=O)CNC(=O)[C@H](CCC(=O)O)NC(=O)C(C)(C)NC(=O)[C@@H](N)Cc1ccc(O)cc1)[C@@H](C)O)[C@@H](C)O)C(=O)N[C@@H](C)C(=O)N[C@@H](CC(C)C)C(=O)N[C@@H](CCC(=O)O)C(=O)N[C@@H](CCCCN)C(=O)N[C@@H](CCCCNC(=O)COCCOCCNC(=O)COCCOCCNC(=O)CC[C@H](NC(=O)CCCCCCCCCCCCCCCCC(=O)O)C(=O)O)C(=O)N[C@@H](C)C(=O)N[C@@H](CCC(N)=O)C(=O)N[C@@H](CCCNC(=N)N)C(=O)N[C@@H](C)C(=O)N[C@@H](Cc1ccccc1)C(=O)N[C@H](C(=O)N[C@@H](CCC(=O)O)C(=O)N[C@@H](Cc1c[nH]c2ccccc12)C(=O)N[C@@H](CC(C)C)C(=O)N[C@@H](CC(C)C)C(=O)N[C@@H](C)C(=O)N[C@@H](CCC(N)=O)C(=O)N[C@@H](CCCCN)C(N)=O)C(C)C [Compound 18] (H-Y[Aib]EGTFTSDLSIALEKK([AEEA-AEEA-γGlu-C18 diacid])AQRAFVEWLLAQK-NH2)	
		22		14	CC[C@H](C)[C@H](NC(=O)[C@H](CO)NC(=O)[C@H](Cc1ccc(O)cc1)NC(=O)[C@H](CC(=O)O)NC(=O)[C@H](CO)NC(=O)[C@@H](NC(=O)[C@H](Cc1ccccc1)NC(=O)[C@@H](NC(=O)CNC(=O)[C@H](CCC(=O)O)NC(=O)C(C)(C)NC(=O)[C@@H](N)Cc1ccc(O)cc1)[C@@H](C)O)[C@@H](C)O)C(=O)N[C@@H](Cc1ccc(O)cc1)C(=O)N[C@@H](CC(C)C)C(=O)N[C@@H](CCC(=O)O)C(=O)N[C@@H](CCCCN)C(=O)N[C@@H](CCCCNC(=O)COCCOCCNC(=O)COCCOCCNC(=O)CC[C@H](NC(=O)CCCCCCCCCCCCCCCCC(=O)O)C(=O)O)C(=O)N[C@@H](C)C(=O)N[C@@H](CCC(N)=O)C(=O)N[C@@H](CCCNC(=N)N)C(=O)N[C@@H](C)C(=O)N[C@@H](Cc1ccccc1)C(=O)N[C@H](C(=O)N[C@@H](CCC(=O)O)C(=O)N[C@@H](Cc1c[nH]c2ccccc12)C(=O)N[C@@H](CC(C)C)C(=O)N[C@@H](CC(C)C)C(=O)N[C@@H](CCCNC(=N)N)C(=O)N[C@@H](C)C(N)=O)C(C)C [Compound 18] (H-Y[Aib]EGTFTSDYSIYLEKK([AEEA-AEEA-γGlu-C18 diacid])AQRAFVEWLLRA-NH2)	
